Data on six molecules can be found in patent publication US11155586B2, “Cystine knot scaffold platform” (Genentech, Inc., priority 2015, dated 2021).

The target of assay [1] is T1, hVEGF-A (8-109) (Homo sapiens, UniProt P15692).
T1 sequence (P15692 34-135 isoform P15692-4): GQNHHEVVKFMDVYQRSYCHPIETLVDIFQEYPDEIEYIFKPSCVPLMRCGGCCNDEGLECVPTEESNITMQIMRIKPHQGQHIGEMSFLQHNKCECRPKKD
In words: SPR binding assay (BIACORE 3000, 37° C.). The procedure:
Depending on the format of the assay either a streptavidin sensor (SA) or a dextran-coated (CM5) sensor was utilized as described below.
For use with the SA sensor, VEGF-A was first biotinylated (no more than 2 biotin/VEGF-A) by incubating the protein with EZ-link NHS-PEG4-Biotin (Pierce) in a 1:1.5 molar ratio respectively, in PBS for 2 hours on ice. Reaction was then quenched by addition of 10 molar excess of Glycine pH 8.0 and the sample was buffer exchanged into PBS using an Amicon 0.5 mL 3000 MWCO ultra-centrifugal filters (EMD Millipore). The biotinylation state of the protein was verified by LC-MS analysis. Biotinylated VEGF-A was then captured on the surface until a resonance unit (RU) signal of about ˜400. For immobilization of VEGF-A on CM5 sensor, the surface was first activated with a mixture of N-ethyl-N′-(3-dimethylaminopropyl)carbodiimide hydrochloride and N-hydroxysuccinimide (EDC/NHS) according to the supplier instructions. VEGF-A was then diluted into coupling buffer (0.1 M Acetate Buffer, pH 5.0) and injected until the signal reached about ˜400 RU followed by a wash with 1 M ethanolamine pH 8.0 to quench remaining activated sites.
Following the capture step, a series of the peptide concentrations were prepared in HBS-EP buffer with matching DMSO concentrations to 0.1% and injected at a flow rate of […]. The resulting sensorgrams were then analyzed using a 1:1 binding model to obtain kinetic data and affinities using Scrubber 2.0 (BioLogic Software).

The target in assay [2] is T2, hVEGF(8-109) (Homo sapiens, UniProt P15692).
T2 construct: hVEGF(8-109) or BSA were coated on 384-well MAXISORP™ immunoplates
T2 sequence (P15692 214-315): T1 sequence (P15692 34-135 isoform P15692-4)
In words: Spot phage ELISA. The format is binding. The procedure: After four rounds of binding selection, individual phage clones were picked and inoculated into 450 μl 2YT media containing 50 µg/ml Carbenecillin and M13-KO7 helper phage in 96-well blocks, which were grown at 37° C. overnight. The supernatant was analyzed with spot phage ELISA as follows: hVEGF(8-109) or BSA were coated on 384-well MAXISORP™ immunoplates and phage supernatant diluted (1:3) with PBT buffer was added to the wells. The plates were washed and bound phage was detected with anti-M13-HRP followed by TMB substrate. In these assays, phage binding to BSA alone was tested in parallel to assess background binding. Clones whose binding signals for hVEGF-A (8-109) were more than 3 times higher than to BSA (background) were considered positive. Positive clones were subjected to DNA sequence analysis.

Where [3] appears, read: loop 2 variants based on VEGF_CKP9.63 framework, Table 27.
The mark [4] stands for this setting: Table 37, surface plasmon resonance, VEGF-A.

SMILES strings stand for the structures. Positions of bridges follow the written chain, without caps; N, C: chain ends. Non-standard residues stand in square brackets, D forms with d. Residues, ends and D or L forms follow the SMILES beside them. PEG6 = NCCOCCOCCOCCOCCOCCOCCC(=O)O; Pra = C#CC[C@H](N)C(=O)O

`CSCC[C@@H]1NC(=O)[C@H](C(C)C)NC(=O)[C@H](CC(=O)O)NC(=O)[C@@H](NC(=O)CN)CSSC[C@@H](C(=O)N[C@H](C(=O)N[C@H]2CSSC[C@@H](C(=O)NCC(=O)O)NC(=O)[C@H](CO)NC(=O)[C@H](CC(N)=O)NC(=O)[C@H](Cc3ccc(O)cc3)NC(=O)[C@H](Cc3c[nH]c4ccccc34)NC(=O)[C@H](Cc3c[nH]cn3)NC2=O)C(C)C)NC(=O)CNC(=O)[C@H](C)NC(=O)[C@H](CC(C)C)NC(=O)[C@@H]2CSSC[C@H](NC(=O)CNC(=O)[C@H](Cc3c[nH]c4ccccc34)NC(=O)[C@H](Cc3ccc(O)cc3)NC(=O)[C@@H]3CCCN3C(=O)[C@H](CCC(N)=O)NC1=O)C(=O)NCC(=O)N[C@@H](CCC(=O)O)C(=O)N[C@@H](CC(N)=O)C(=O)N[C@@H](Cc1ccccc1)C(=O)N[C@@H](CC(C)C)C(=O)N2` [VEGF_CKP9.63.1] (H-GCDVMQPYWGCGENFLCLAGCVCHWYNSCG-OH; disulfide 2-21, 11-17, 23-29 (inferred); N-terminus and C-terminus assumed): the kd in assay [1] (hVEGF-A (8-109), Table 29) was determined as 0.37. In assay [2] (Table 27), the “S/N (signal to noise ratio as compared to BSA control)” value stood at 25.2. The molecule also registered an ELISA in assay [2] (setting [3]) of 2.0.

`CC[C@H](C)[C@@H]1NC(=O)[C@H](CC(N)=O)NC(=O)[C@@H](NC(=O)CN)CSSC[C@@H](C(=O)N[C@H](C(=O)N[C@H]2CSSC[C@@H](C(=O)NCC(=O)O)NC(=O)[C@H](CO)NC(=O)[C@H](CCC(N)=O)NC(=O)[C@H](Cc3ccc(O)cc3)NC(=O)[C@H](Cc3ccc(O)cc3)NC(=O)[C@H](CCC(N)=O)NC2=O)C(C)C)NC(=O)CNC(=O)[C@H](C)NC(=O)[C@H](CC(C)C)NC(=O)[C@@H]2CSSC[C@H](NC(=O)CNC(=O)[C@H](Cc3c[nH]c4ccccc34)NC(=O)[C@H](Cc3ccccc3)NC(=O)[C@@H]3CCCN3C(=O)[C@H](CC(C)C)NC(=O)[C@H](CCSC)NC1=O)C(=O)NCC(=O)N[C@@H](CCC(N)=O)C(=O)N[C@@H](CO)C(=O)N[C@@H](Cc1ccccc1)C(=O)N[C@@H](CCC(=O)O)C(=O)N2` [VEGF_CKP9.54.1] (H-GCNIMLPFWGCGQSFECLAGCVCQYYQSCG-OH; disulfide 2-21, 11-17, 23-29 (inferred); N-terminus and C-terminus assumed) came in with a kd in assay [1] (setting [4]) of 0.36. In assay [2] (Table 26), the “S/N (signal to noise ratio as compared to BSA control)” value came to 29.9. The same molecule came in with an ELISA in assay [2] (loop 2 variants based on 9.54 framework, Table 26) of 2.4.

As for `CSCC[C@@H]1NC(=O)[C@H](C(C)C)NC(=O)[C@H](CC(=O)O)NC(=O)[C@@H](NC(=O)CN)CSSC[C@@H](C(=O)N[C@H](C(=O)N[C@H]2CSSC[C@@H](C(=O)NCC(=O)O)NC(=O)[C@H](CO)NC(=O)[C@H](CC(N)=O)NC(=O)[C@H](Cc3ccc(O)cc3)NC(=O)[C@H](Cc3c[nH]c4ccccc34)NC(=O)[C@H](Cc3c[nH]cn3)NC2=O)C(C)C)NC(=O)CNC(=O)[C@H](C)NC(=O)[C@H](CC(C)C)NC(=O)[C@@H]2CSSC[C@H](NC(=O)CNC(=O)[C@H](Cc3c[nH]c4ccccc34)NC(=O)[C@H](Cc3ccc(O)cc3)NC(=O)[C@@H]3CCCN3C(=O)[C@H](CCC(N)=O)NC1=O)C(=O)NCC(=O)N[C@@H](CCC(=O)O)C(=O)N[C@@H](CO)C(=O)N[C@@H](CC(C)C)C(=O)N[C@@H](CO)C(=O)N2` [VEGF_CKP9.63.69] (H-GCDVMQPYWGCGESLSCLAGCVCHWYNSCG-OH; disulfide 2-21, 11-17, 23-29 (inferred); N-terminus and C-terminus assumed), the kd in assay [1] (hVEGF-A (8-109), Table 29) is listed as 0.20. Also, in assay [2] (Table 27), the “S/N (signal to noise ratio as compared to BSA control)” value turned out to be 23.7. Further, in assay [2] (setting [3]), the ELISA was 2.9.

`CSCC[C@@H]1NC(=O)[C@H](CC(=O)O)NC(=O)[C@H](CCCNC(=N)N)NC(=O)CNC(=O)[C@@H]2CSSC[C@H](NC(=O)[C@H](CC(=O)O)NC1=O)C(=O)N[C@@H](CC(C)C)C(=O)N[C@@H](C)C(=O)NCC(=O)N[C@H](C(=O)N[C@H](C(=O)N[C@H]1CSSC[C@@H](C(=O)NCC(=O)O)NC(=O)[C@H](CO)NC(=O)[C@H](CC(N)=O)NC(=O)[C@H](Cc3ccc(O)cc3)NC(=O)[C@H](Cc3c[nH]c4ccccc34)NC(=O)[C@H](Cc3c[nH]cn3)NC1=O)C(C)C)CSSC[C@H](NC(=O)CN)C(=O)N[C@@H](CC(=O)O)C(=O)N[C@@H](C(C)C)C(=O)N[C@@H](CCSC)C(=O)N[C@@H](CCC(N)=O)C(=O)N1CCC[C@H]1C(=O)N[C@@H](Cc1ccc(O)cc1)C(=O)N[C@@H](Cc1c[nH]c3ccccc13)C(=O)NCC(=O)N2` [VEGF_CKP9.63.27] (H-GCDVMQPYWGCGRDMDCLAGCVCHWYNSCG-OH; disulfide 2-21, 11-17, 23-29 (inferred); N-terminus and C-terminus assumed) displayed a kd in assay [1] (hVEGF-A (8-109), Table 29) of 0.15. Also, the “S/N (signal to noise ratio as compared to BSA control)” value in assay [2] (Table 27) was 26.0. The same molecule registered an ELISA in assay [2] (setting [3]) of 2.1.

Turning to `C#CC[C@H](N)C(=O)NCCOCCOCCOCCOCCOCCOCCC(=O)N[C@H]1CSSC[C@@H](C(=O)N[C@H](C(=O)N[C@H]2CSSC[C@@H](C(=O)NCC(=O)O)NC(=O)[C@H](CO)NC(=O)[C@H](CCC(N)=O)NC(=O)[C@H](Cc3ccc(O)cc3)NC(=O)[C@H](Cc3ccc(O)cc3)NC(=O)[C@H](CCC(N)=O)NC2=O)C(C)C)NC(=O)CNC(=O)[C@H](C)NC(=O)[C@H](CC(C)C)NC(=O)[C@@H]2CSSC[C@H](NC(=O)CNC(=O)[C@H](Cc3c[nH]c4ccccc34)NC(=O)[C@H](Cc3ccccc3)NC(=O)[C@@H]3CCCN3C(=O)[C@H](CC(C)C)NC(=O)[C@H](CCSC)NC(=O)[C@H]([C@@H](C)CC)NC(=O)[C@H](CC(N)=O)NC1=O)C(=O)NCC(=O)N[C@@H](CCCNC(=N)N)C(=O)N[C@@H](CC(=O)O)C(=O)N[C@@H](Cc1ccccc1)C(=O)N[C@@H](CCC(=O)O)C(=O)N2` [VEGF_CKP9.54.90-Alkyn] (H-[Pra][PEG6]CNIMLPFWGCGRDFECLAGCVCQYYQSCG-OH; disulfide 3-22, 12-18, 24-30; N-terminus and C-terminus assumed), the kd in assay [1] (setting [4]) was determined as 0.27.

In assay [1] (setting [4]), `CSCC[C@@H]1NC(=O)[C@H](CC(C)C)NC(=O)[C@H](CCC(N)=O)NC(=O)[C@@H](NC(=O)CN)CSSC[C@@H](C(=O)N[C@H](C(=O)N[C@H]2CSSC[C@@H](C(=O)NCC(=O)O)NC(=O)[C@H](CO)NC(=O)[C@H](CCC(N)=O)NC(=O)[C@H](Cc3ccc(O)cc3)NC(=O)[C@H](Cc3c[nH]c4ccccc34)NC(=O)[C@H](Cc3c[nH]cn3)NC2=O)C(C)C)NC(=O)CNC(=O)[C@H](C)NC(=O)[C@H](CC(C)C)NC(=O)[C@@H]2CSSC[C@H](NC(=O)CNC(=O)[C@H](Cc3c[nH]c4ccccc34)NC(=O)[C@H](Cc3ccccc3)NC(=O)[C@@H]3CCCN3C(=O)[C@H](CCC(N)=O)NC1=O)C(=O)N[C@@H](CCCCN)C(=O)N[C@@H](CCC(N)=O)C(=O)N[C@@H](CC(=O)O)C(=O)N[C@@H](CO)C(=O)N[C@@H](CC(=O)O)C(=O)N2` [VEGF_CKP9] (H-GCQLMQPFWGCKQDSDCLAGCVCHWYQSCG-OH; disulfide 2-21, 11-17, 23-29 (inferred); N-terminus and C-terminus assumed) yielded a kd of 40. For the same molecule, the “S/N (signal to noise ratio as compared to BSA control)” value in assay [2] (Table 19) was found to be 36.0; in assay [2] (Table 22), 7.4; in assay [2] (Table 23), 11.6; in assay [2] (Table 24), 7.4. Moreover, the ELISA is recorded as 0.4 in assay [2] (VEGF_CKP9 Loop1/Loop5 affinity-matured variants, Table 24); 0.4 in assay [2] (VEGF_CKP9 Loop1 affinity-matured variants, Table 22); 0.9 in assay [2] (VEGF_CKP9 Loop5 affinity-matured variants, Table 23); 3.3 in assay [2] (spot phage ELISA signal, EETI-II-based binders against hVEGF-A, Table 19).
